Test results taken from ChEMBL document CHEMBL5360652, “Drug Discovery Targeting Nuclear Receptor Binding SET Domain Protein 2 (NSD2)” (J Med Chem, 2023).

Columns and labels:
[1] = target: T1, Histone-lysine N-methyltransferase NSD3 (Homo sapiens, UniProt Q9BZ95); assay: Binding affinity to human recombinant NSD3 PWWP1 domain assessed as dissociation constant
T1 sequence (Q9BZ95 whole entry): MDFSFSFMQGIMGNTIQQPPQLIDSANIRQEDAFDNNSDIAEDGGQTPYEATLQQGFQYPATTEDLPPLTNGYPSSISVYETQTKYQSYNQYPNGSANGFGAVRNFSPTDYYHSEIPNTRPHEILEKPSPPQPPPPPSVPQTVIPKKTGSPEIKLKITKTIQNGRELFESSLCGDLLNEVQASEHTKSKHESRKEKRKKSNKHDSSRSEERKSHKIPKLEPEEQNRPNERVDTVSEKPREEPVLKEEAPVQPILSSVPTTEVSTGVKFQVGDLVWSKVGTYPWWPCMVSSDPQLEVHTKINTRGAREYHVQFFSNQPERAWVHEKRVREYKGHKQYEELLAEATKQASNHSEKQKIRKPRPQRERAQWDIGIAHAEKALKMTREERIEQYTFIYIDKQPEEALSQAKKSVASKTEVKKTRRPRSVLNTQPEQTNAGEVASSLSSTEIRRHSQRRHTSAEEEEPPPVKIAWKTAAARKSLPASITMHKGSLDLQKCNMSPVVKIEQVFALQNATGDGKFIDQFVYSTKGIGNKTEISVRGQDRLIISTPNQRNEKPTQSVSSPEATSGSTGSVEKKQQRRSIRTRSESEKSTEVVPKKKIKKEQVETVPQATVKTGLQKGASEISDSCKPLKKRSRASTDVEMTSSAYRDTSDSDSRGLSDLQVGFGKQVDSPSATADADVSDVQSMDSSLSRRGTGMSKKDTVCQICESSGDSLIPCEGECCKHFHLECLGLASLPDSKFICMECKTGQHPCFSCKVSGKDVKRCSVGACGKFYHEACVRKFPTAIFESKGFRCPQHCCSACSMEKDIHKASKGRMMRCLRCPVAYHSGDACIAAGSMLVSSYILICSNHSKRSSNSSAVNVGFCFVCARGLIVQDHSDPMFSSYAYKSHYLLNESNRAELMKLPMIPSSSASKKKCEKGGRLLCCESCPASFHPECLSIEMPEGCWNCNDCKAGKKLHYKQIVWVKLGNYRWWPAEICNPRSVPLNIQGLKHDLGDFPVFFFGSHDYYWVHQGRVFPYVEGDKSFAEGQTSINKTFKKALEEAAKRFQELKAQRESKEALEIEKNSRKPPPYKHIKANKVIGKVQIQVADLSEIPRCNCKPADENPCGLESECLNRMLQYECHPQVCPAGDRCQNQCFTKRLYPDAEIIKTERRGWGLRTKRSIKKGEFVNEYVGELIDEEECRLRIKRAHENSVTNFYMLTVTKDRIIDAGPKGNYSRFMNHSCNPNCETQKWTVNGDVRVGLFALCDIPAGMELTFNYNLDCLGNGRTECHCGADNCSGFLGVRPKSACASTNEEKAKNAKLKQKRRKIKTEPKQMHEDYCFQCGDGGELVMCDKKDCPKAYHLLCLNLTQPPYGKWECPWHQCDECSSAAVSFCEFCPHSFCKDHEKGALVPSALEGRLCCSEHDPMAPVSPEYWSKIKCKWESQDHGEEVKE

[2] = target: T2, Histone-lysine N-methyltransferase NSD2 (Homo sapiens, UniProt O96028); assay: Binding affinity to NSD2 PWWP1 domain (unknown origin) assessed as dissociation constant
T2 sequence (O96028 whole entry): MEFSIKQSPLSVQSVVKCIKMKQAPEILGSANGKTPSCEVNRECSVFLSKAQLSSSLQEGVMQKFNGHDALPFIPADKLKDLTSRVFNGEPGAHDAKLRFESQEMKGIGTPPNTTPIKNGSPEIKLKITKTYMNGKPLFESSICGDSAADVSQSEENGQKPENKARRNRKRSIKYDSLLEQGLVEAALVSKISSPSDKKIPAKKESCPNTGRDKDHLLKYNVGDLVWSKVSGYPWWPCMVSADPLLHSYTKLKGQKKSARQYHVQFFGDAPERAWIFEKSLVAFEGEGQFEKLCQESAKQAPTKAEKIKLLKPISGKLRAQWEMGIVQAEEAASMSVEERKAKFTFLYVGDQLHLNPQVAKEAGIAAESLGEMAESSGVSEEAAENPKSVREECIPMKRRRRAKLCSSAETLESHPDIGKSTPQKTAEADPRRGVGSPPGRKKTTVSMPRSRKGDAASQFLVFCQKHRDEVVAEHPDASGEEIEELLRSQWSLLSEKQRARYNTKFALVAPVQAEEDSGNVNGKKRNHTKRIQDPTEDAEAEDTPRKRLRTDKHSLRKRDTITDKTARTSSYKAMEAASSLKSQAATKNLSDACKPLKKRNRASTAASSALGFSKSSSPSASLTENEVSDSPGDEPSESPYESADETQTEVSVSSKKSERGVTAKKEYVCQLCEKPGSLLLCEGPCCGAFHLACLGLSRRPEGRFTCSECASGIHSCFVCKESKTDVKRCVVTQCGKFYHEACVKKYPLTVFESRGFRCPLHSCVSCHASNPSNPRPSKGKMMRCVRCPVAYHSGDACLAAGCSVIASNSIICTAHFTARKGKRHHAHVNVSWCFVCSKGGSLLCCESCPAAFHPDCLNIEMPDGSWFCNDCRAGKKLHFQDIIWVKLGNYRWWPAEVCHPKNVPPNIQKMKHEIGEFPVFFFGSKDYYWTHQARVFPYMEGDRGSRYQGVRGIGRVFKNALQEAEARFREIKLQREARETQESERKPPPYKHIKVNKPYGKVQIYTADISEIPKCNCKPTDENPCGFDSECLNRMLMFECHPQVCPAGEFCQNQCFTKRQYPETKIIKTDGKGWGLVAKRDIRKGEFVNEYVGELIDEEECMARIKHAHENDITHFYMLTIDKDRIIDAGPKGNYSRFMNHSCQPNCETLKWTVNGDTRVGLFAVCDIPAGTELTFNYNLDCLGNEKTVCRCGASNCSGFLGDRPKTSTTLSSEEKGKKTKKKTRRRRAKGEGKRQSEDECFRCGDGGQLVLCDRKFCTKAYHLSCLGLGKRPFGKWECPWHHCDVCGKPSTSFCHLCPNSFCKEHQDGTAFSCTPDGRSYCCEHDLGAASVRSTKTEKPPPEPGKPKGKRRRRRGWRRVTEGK

[3] = target: T3, Histone-lysine N-methyltransferase, H3 lysine-36 specific (Homo sapiens, UniProt Q96L73); assay: Inhibition of human recombinant NSD1 incubated for 2 hrs by AlphaLISA method
T3 sequence (Q96L73 whole entry): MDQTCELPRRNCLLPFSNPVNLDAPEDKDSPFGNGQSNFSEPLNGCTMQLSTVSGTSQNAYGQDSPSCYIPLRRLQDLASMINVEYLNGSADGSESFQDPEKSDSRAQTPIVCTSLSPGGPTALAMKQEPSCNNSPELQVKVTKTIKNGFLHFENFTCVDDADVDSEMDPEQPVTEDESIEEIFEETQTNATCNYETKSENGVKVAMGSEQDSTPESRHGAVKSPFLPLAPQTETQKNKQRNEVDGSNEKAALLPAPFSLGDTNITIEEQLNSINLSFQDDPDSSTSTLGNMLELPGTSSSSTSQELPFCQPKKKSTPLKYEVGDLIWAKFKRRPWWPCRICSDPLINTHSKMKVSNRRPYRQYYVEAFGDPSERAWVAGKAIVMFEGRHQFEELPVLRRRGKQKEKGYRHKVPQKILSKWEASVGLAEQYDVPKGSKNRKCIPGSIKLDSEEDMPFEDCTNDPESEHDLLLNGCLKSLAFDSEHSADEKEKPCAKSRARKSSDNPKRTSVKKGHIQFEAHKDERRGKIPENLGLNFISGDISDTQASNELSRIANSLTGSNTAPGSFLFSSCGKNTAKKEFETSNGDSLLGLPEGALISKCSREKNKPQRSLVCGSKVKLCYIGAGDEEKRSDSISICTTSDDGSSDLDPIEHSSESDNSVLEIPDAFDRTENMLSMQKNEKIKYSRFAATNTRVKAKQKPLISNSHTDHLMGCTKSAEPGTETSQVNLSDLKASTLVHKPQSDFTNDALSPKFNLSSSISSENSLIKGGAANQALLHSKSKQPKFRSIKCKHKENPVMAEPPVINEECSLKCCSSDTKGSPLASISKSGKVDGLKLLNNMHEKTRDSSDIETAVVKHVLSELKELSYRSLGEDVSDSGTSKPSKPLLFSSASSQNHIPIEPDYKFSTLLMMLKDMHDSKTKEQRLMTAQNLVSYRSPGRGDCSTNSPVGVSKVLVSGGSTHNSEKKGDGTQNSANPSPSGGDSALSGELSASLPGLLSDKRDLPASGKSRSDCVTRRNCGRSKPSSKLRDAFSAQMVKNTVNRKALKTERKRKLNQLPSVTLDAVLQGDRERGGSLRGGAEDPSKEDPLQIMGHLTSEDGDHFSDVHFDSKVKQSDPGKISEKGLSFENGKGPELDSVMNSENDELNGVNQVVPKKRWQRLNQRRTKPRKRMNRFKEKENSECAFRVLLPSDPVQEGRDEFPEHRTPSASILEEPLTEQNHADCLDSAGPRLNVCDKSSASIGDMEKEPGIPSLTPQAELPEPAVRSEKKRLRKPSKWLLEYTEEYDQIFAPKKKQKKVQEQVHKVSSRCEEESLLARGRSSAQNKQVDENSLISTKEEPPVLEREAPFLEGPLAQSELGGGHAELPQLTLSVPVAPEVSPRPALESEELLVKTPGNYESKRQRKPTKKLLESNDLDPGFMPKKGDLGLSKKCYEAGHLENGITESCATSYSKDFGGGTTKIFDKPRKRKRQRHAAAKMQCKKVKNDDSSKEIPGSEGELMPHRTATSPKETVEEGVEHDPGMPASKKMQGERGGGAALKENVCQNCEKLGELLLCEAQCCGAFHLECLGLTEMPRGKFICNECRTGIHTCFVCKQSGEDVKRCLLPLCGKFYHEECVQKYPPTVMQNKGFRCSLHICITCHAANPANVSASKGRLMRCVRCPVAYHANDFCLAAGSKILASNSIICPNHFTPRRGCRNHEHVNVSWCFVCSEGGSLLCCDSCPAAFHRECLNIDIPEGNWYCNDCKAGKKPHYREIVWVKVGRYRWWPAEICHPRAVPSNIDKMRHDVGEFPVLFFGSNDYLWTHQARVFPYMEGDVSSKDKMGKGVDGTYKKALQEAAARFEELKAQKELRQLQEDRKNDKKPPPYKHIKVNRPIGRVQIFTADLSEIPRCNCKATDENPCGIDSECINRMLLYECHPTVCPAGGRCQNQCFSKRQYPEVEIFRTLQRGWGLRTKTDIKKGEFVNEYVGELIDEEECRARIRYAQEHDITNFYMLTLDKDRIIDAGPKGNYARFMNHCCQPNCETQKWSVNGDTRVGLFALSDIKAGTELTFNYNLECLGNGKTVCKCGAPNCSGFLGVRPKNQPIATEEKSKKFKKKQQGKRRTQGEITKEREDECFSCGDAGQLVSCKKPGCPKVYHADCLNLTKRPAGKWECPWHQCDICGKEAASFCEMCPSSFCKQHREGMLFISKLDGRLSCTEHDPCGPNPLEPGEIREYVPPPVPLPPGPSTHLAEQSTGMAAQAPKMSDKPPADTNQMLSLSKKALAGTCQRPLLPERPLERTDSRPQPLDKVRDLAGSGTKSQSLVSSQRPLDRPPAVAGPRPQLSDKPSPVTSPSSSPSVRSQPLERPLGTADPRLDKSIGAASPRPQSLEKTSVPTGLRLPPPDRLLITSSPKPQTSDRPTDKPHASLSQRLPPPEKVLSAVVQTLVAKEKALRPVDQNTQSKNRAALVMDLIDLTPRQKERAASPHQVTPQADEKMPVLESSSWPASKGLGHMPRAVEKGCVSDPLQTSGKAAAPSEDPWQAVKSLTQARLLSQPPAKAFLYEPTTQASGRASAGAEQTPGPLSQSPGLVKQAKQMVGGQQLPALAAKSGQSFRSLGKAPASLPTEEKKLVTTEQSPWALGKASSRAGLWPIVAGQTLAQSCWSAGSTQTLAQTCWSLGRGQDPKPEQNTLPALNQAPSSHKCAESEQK

[4] = target: Histone-lysine N-methyltransferase 2A (Homo sapiens) (UniProt Q03164); assay: Inhibition of MLL1 (unknown origin) at 10 uM relative to control
[5] = target: Histone-lysine N-methyltransferase SETDB1 (Homo sapiens) (UniProt Q15047); assay: Inhibition of SETDB1 (unknown origin) at 10 uM relative to control
[6] = system: PC-3; assay: Antiproliferative activity against human PC-3 cells assessed as cell growth inhibition incubated for 48 hrs by MTT assay; assay type: functional, cell-based; conditions: PC-3, 48 h
[7] = target: T4, Histone-lysine N-methyltransferase NSD2 (Homo sapiens) (UniProt O96028); assay: Inhibition of NSD2 (unknown origin) at 50 uM relative to control
T4 sequence (whole entry): T2 sequence (O96028 whole entry)

[8] = target: T4, Histone-lysine N-methyltransferase NSD2 (Homo sapiens); assay: Inhibition of NSD2 (unknown origin) at 10 uM relative to control
[9] = target: T2, Histone-lysine N-methyltransferase NSD2; assay: Inhibition of NSD2 (unknown origin)
[10] = target: T3, Histone-lysine N-methyltransferase, H3 lysine-36 specific; assay: Inhibition of NSD1 SET domain (1852 to 2105 residues) (unknown origin) expressed in Escherichia coli BL21 (DE3)
[11] = target: T4, Histone-lysine N-methyltransferase NSD2 (Homo sapiens); assay: Induction of degradation of NSD2 in human U2OS cells assessed as maximum degradation relative to control; assay type: cell-based
[12] = target: T2, Histone-lysine N-methyltransferase NSD2; assay: Induction of degradation of NSD2 in human U2OS cells; assay type: cell-based
[13] = target: T2, Histone-lysine N-methyltransferase NSD2; assay: Binding affinity to NSD2 PWWP1 domain (unknown origin) assessed as dissociation constant by SPR assay
[14] = target: von Hippel-Lindau disease tumor suppressor/Histone-lysine N-methyltransferase NSD3 (Homo sapiens, UniProt P40337+Q9BZ95); assay: Protac activity at VHL/NSD3 in human MOLM-13 cells assessed as induction of NSD3 degradation incubated for 6 hrs by immunoblotting analysis; assay type: cell-based
von Hippel-Lindau disease tumor suppressor/Histone-lysine N-methyltransferase NSD3, sequence (P40337 whole entry, one chain of several): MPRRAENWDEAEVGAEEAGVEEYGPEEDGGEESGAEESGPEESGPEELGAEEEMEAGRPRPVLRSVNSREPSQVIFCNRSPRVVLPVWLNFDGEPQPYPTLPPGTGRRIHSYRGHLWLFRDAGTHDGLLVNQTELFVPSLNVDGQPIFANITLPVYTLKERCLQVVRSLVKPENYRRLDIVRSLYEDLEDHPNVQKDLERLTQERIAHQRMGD

[15] = target: von Hippel-Lindau disease tumor suppressor/Histone-lysine N-methyltransferase NSD3 (Homo sapiens) (UniProt Q9BZ95+P40337); assay: Protac activity at VHL/NSD3 in human MOLM-13 cells assessed as induction of NSD3 degradation incubated for 48 hrs by immunoblotting analysis relative to control; assay type: cell-based
von Hippel-Lindau disease tumor suppressor/Histone-lysine N-methyltransferase NSD3 (Homo sapiens), sequence (P40337 whole entry, looked up, one chain of several): as the sequence (P40337 whole entry, one chain of several) above

[16] = system: U2OS; assay: Cytotoxicity against human U2OS cells assessed as cell growth inhibition; assay type: functional
[17] = target: Histone-lysine N-methyltransferase NSD2 (Homo sapiens, UniProt O96028, T1150A); assay: Inhibition of NSD2 T1150A mutant (unknown origin)
Histone-lysine N-methyltransferase NSD2 (Homo sapiens, UniProt O96028, T1150A), sequence (O96028 whole entry T1150A): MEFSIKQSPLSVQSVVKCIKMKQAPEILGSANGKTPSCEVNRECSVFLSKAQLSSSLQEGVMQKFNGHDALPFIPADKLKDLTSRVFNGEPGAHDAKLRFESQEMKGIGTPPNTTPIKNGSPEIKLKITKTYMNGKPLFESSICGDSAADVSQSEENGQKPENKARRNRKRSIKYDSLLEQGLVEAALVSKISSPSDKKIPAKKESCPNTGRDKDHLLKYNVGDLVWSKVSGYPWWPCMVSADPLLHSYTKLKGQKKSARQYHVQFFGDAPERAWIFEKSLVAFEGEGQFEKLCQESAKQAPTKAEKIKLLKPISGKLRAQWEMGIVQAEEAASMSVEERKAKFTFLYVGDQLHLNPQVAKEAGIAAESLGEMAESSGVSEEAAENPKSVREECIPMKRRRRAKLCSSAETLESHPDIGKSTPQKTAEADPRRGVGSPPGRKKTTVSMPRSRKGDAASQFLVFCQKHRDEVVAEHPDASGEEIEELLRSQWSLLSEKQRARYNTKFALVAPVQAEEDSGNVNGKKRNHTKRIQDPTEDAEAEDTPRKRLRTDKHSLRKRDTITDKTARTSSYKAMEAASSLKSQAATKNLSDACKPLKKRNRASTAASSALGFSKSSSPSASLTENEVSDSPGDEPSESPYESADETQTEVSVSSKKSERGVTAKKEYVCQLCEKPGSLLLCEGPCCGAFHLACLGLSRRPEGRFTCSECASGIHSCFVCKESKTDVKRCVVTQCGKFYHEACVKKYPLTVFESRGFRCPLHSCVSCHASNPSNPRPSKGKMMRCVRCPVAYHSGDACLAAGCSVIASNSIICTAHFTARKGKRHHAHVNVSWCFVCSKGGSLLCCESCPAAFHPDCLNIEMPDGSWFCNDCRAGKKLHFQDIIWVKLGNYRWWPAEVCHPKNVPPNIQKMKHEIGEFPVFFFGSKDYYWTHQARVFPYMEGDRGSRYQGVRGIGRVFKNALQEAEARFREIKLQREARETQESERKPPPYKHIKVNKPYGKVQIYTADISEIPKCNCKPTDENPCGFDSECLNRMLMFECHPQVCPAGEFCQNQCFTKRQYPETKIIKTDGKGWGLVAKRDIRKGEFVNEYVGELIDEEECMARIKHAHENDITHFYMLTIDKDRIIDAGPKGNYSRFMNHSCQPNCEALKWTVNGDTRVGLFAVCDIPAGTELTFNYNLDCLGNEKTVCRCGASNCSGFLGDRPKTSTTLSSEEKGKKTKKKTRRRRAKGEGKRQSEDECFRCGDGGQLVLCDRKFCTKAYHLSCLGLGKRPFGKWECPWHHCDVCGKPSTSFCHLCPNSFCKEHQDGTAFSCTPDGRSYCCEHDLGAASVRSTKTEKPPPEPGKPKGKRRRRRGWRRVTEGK

[18] = target: Histone-lysine N-methyltransferase NSD2 (Homo sapiens, UniProt O96028, E1099K); assay: Inhibition of NSD2 E1099K mutant (unknown origin)
Histone-lysine N-methyltransferase NSD2 (Homo sapiens, UniProt O96028, E1099K), sequence (O96028 whole entry E1099K, the tested form may be a part): as the sequence (O96028 whole entry T1150A) above, with E1099K, A1150T counted along it

[19] = target: T3, Histone-lysine N-methyltransferase, H3 lysine-36 specific; assay: Inhibition of N-terminal hexa-histidine tagged NSD1 SET domain (1852 to 2105 residues) (unknown origin) expressed in Escherichia coli incubated for 2 hrs by ITC method

O=C(CCCC[C@@H]1SC[C@@H]2NC(=O)N[C@@H]21)NCCOCCOCCOCCOCCOCCOCCOCCOCCOCCOCCOCCNC(=O)c1ccc(NC(=O)c2ccc(CN(C(=O)c3ccc4c(c3)OCC(=O)N4)C3CC3)cc2)cc1
Kd [1]: 0.046 µM | Kd [2]: 0.046 µM

COc1ccc(-c2cc(Cn3cnc4c(N)ncnc43)c(N3CCC[C@](N)(COC4CCC4)C3)cn2)cc1F
IC50 [3]: 0.27 µM

COC(=O)c1cc(NC(=O)Nc2ccc3nnsc3c2)cc(C(=O)OC)c1
inhibition [4]: 79% | inhibition [5]: 85% | IC50 [6]: < 10 µM | inhibition [7]: 95% | inhibition [8]: 97%

Cn1nnc2cc(NC(=O)Nc3cccc([N+](=O)[O-])c3)ccc21
IC50 [9]: 8.3 µM

O=C1O[C@@H](C(=O)N2CCN(Cc3nc4sc5c(c4c(=O)[nH]3)CCCC5)CC2)Cc2ccccc21
IC50 [10]: > 1000 µM

COC[C@@]1(N)CCCN(c2cnc(-c3cc(Cl)ccc3F)cc2Cn2cnc3c(N)ncnc32)C1
IC50 [3]: 0.248 µM

CC(=O)c1ccc(-c2cc(NC(=O)Nc3ccc4nnsc4c3)cc(C(F)(F)F)c2)s1
inhibition [7]: 99%

N=C(N)NCCC[C@H](N)C(=O)NCCCCCCNC(=O)c1ccc(NC(=O)c2ccc(CN(C(=O)c3ccc4c(c3)OCC(=O)N4)C3CC3)cc2)cc1
Emax [11]: 81% | EC50 [12]: 1.2 µM | Kd [13]: 0.014 µM

Cc1cc(CNCCCC(=O)NCCCCCCCCC(=O)N[C@H](C(=O)N2C[C@H](O)C[C@H]2C(=O)N[C@@H](C)c2ccc(-c3scnc3C)cc2)C(C)(C)C)cc(C)c1-c1ncn(C)c1-c1ccnc2cc(F)ccc12
Kd [1]: 1.3 µM | EC50 [14]: 4.9 µM | Emax [15]: 80%

COC[C@@]1(N)CCCN(c2cnc(-c3ccc(F)cc3F)cc2Cn2cnc3c(N)ncnc32)C1
IC50 [3]: 0.225 µM

O=C1C(Cl)=C(NCCN2CCOCC2)C(=O)c2ncccc21
CC50 [16]: 0.27 µM | IC50 [17]: 0.17 µM | IC50 [18]: 0.11 µM

N#CSc1cc(O)c2nc(N)sc2c1
IC50 [19]: < 20 µM
